According to paper PMC10286969, “Characterization of the biochemical activity and tumor-promoting role of the dual protein methyltransferase METL-13/METTL13 in Caenorhabditis elegans” (PLOS ONE, 2023):

Molecular target: T1, MT13-C (C-terminal MTase domain fragment of METL-13) (Caenorhabditis elegans, UniProt Q17539)
T1 construct: C-terminal methyltransferase fragment, residues 213-656, N-terminal His6 tag (pET28a), expressed in E. coli, Ni-NTA purified
T1 sequence (Q17539 213-656): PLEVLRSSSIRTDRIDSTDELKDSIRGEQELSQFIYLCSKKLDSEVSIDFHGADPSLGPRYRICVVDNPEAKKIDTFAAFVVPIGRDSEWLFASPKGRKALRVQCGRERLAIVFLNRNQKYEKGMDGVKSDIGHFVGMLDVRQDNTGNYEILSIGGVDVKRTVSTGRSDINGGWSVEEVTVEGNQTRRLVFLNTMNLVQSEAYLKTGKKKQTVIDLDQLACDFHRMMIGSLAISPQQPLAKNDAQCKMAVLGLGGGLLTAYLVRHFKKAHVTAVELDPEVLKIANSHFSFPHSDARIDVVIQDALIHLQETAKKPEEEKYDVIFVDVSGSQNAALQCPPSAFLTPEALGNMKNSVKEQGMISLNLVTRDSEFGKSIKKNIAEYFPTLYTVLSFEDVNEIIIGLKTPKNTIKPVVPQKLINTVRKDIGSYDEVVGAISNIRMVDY
Assay: in vitro methyltransferase assay, SDS-PAGE fluorography
Type: biochemical
Conditions: methyl donor; protein substrate recombinant human eEF1A1 with C-terminal His tag (N-terminal G2 methylation); labelled compound (tritium); pH 7.4, 100 mM NaCl, 10% glycerol, 30 °C, 1 h

## C[S+](CC[C@H](N)C(=O)O)C[C@H]1O[C@@H](n2cnc3c(N)ncnc32)[C@H](O)[C@@H]1O (stereo partly shown) [[^3H]-AdoMet]
  in vitro methyltransferase assay, SDS-PAGE fluorography: C. elegans MT13-N or MT13-C as enzymes, human eEF1A1 as the substrate and [^3H]AdoMet
